Measured values reported in patent US7582602B2, “Hirulog-like peptide and gene therapy” (priority 2000, dated 2009).
“Also recorded” adds a separate entry of the source.

Experiments:
[1] = system: baboon aortic SMC; assay: Thrombin-induced 3H-thymidine incorporation assay; assay type: cell-based; details: thrombin 10 U/ml
Description: Baboon aortic SMCs (seed cells provided by Dr. A. W. Clowes, University of Washington, Seattle) were grown as previously described (Ishiwata S et al, 1999) and seeded in 12-well plates to sub-confluence. Sub-confluent cells were incubated with serum-free medium for 48 hours. Quiescent SMCs were stimulated with medium containing 1% fetal calf serum and 10 U/ml of thrombin in the absence and presence of HLP for 4 hours. The incubation was continued following the replacement of fresh medium supplemented with 10% serum in the absence of thrombin or its inhibitor for 14 hours. Finally, SMCs were incubated with 0.1 μCi/ml of 3H-thymidine (NEN, Boston, Mass.) in medium containing 10% of serum for 6 hours. At the end of the incubation, the cells were thoroughly washed with PBS then 5% ice-cold trichloroacetic acid, and harvested in 0.25 N NaOH (Safian R D et al, 1990). Radioactivity in aliquots of cell lysate was analyzed in scintillation counter. 3H-Thymidine incorporation was assessed by radioactivity in cell lysates following adjustment with cellular proteins in each well.

[2] = human, in vivo; cited from earlier work
[3] = Activated partial thromboplastin time (aPTT) in rats; assay type: in vivo; details: for aPTT (second): mean±SD, n=4
Description: Quantitative thrombin time (QTT) and activated partial thromboplastin time (aPTT): Plasma levels of hirulog-1 were estimated using QTT as previously described (Safian R D et al, 1990). Synthesized hirulog-1 (>90% of purity) was used as standard. The levels of aPTT in plasma were analyzed using a MLA 1000C Coagamate XM system in Haematology Laboratory, Health Sciences Centre, Winnipeg.
(§1) The levels of aPTT in plasma were analyzed using MLA 1000C Coagamate XM system in Haematology Laboratory, Health Sciences Centre, Winnipeg. For the evaluation of bleeding time, 1 mm of tail tip was removed using a razor blade. Resultant wound was gently blotted with filter paper immediately after the cut and each 30-second thereafter until bleeding stopped. Periods between cutting and no blood blotted onto filter paper were defined as bleeding time (Ishiwata S et al, 1997, 20).

[4] = Tail bleeding time in rats; assay type: in vivo; details: for tail bleeding time during treatment versus control or basal levels: i.v. infusion
Description: as §1

[5] = Induction of antibodies in rabbits; details: rabbit, in vivo
Description: Relationship between HLP concentrations and vascular response. The relationship between plasma concentrations and the anti-restenosis effect of HLP is analysed. Polyclonal antibodies against HLP-KLH conjugate were raised in rabbits by the applicants group. The antibodies specifically recognize HLP in plasma proteins using Western blotting analysis. A competitive immunoassay was developed to measure plasma levels of HLP. Relationship between the effect of HLP on restenosis and its blood concentrations is analysed, which helps evaluate the efficacy of HLP and the design of a proper regimen for HLP treatment to prevent restenosis.
Effect of HLP on immune reactions. Since HLP is a peptide, it potentially induces immune reactions. HLP is a weak antigen. […] The possibility of HLP induces immune reactions in rabbits has not been excluded. Blood is withdrawn four weeks or six months after angioplasty and treatment with HLP, its analogues or saline, and determine the levels of serum C-reactive protein (Clinical Chemistry). Antibodies against HLP in blood are detected by immunodiffusion. Allergic reaction to HLP is monitored during and after the treatment.

[6] = aPTT in rabbits; assay type: in vivo; details: HLP treated rabbits
Description: (§2) Influence of HLP on coagulation and haemorrhage. The levels of aPTT and microvascular bleeding time is determined in atherosclerotic rabbits receiving HLP, heparin, hirulog-1 or saline. The effects of optimized HLP treatment on coagulation and haemorrhage is also be examined in a group of uninjured rabbits on regular diet (n=10). The levels of aPTT is determined in blood withdrawn at 15 minutes after the start of the infusions using MLA Coagamate XM system in Haematology Laboratory. Microvascular bleeding time is determined by bleeding from a cut on ear at 1 minutes after the initiation of infusion as previously described (Blajchman et al, 1979). Incidence of bleeding complications in rabbits with various treatments is recorded. Autopsy is applied to every animal, including unexpected death, to examine the sign of haemorrhage in various organs and tissues.
Restenosis is responsible for the 30-40% long term failure rate following coronary revascularization. Thrombin inhibitors have been considered as one type of potential drug for the prevention of restenosis. […] The experiment was designed to examine the effect of HLP on restenosis of carotid arteries in atherosclerostic rabbits. Right carotid arteries of male New Zealand rabbits were subjected to air dessication. […]

[7] = Haemorrhage, toxicity, liver and kidney function in rats; assay type: in vivo
[8] = target: T1, α-thrombin (Homo sapiens, UniProt P00734); assay: Inhibition of enzymatic activity of thrombin (spectrozyme substrate); assay type: biochemical; details: spectrozyme as substrate, relative to hirulog-1
T1 construct: using α-thrombin and spectrozyme (American Diagnostica Inc., Greenwich, Conn.) as a substrate for thrombin
Source text: HLP keeps the sequence of the active sites of hirulog-1. The amino-terminal tail of HLP contains a region which is homology to a distal portion of the extracellular domain of the thrombin receptor. This region of HLP is structurally distinct from hirulog-19-20 (or HLP20-31) which aims the anion binding exosite of thrombin (Carmeliet P et al, 1997). HLP provides double-site of inhibition on the binding of thrombin to the thrombin receptor, which can more effectively reduce the activation of the […] and the cellular effects of thrombin. In addition, the amino-terminal sequence of HLP can affect the interaction of the inhibitor with the active site of thrombin in a manner different from hirulog-1. This structural difference between HLP and hirulog-1 on their amino terminal can partially explain the lower inhibition of HLP on coagulation. The amino terminal of HLP can be slowly cleaved by thrombin after the formation of complex with thrombin as hirulog-1 (Buchanan M R et al, 1999), which prevents the complete consumption of thrombin.

[9] = Bleeding complications and side effects in rabbits; assay type: in vivo; details: HLP 0.8 mg/kg/h for four hours
Description: as §2
Impact of HLP on liver, kidney and myeloid functions. Peripheral blood is withdrawn before sacrifice from ear vein of normal or atherosclerotic rabbits with and without treatments for analysing complete blood counts, serum albumin, alanine transaminase and blood urea nitrogen (analysed in Dept of Clinical Chemistry) to determine the influence of HLP on liver, kidney and myeloid functions. HLP concentrations in blood is analysed to examine the relationship between blood concentrations and possible toxic effects of HLP. […]

[10] = system: hirulog-like peptide (HLP)
[11] = tail, heparin 50 U/kg/h, hirulog-1 1 mg/kg/h, HLP 1.6 mg/kg/h [HLP(1.6)], 10 minutes after initiation of infusion, mean±SD, n=4
[12] = balloon injured rats, heparin 50 U/kg/h, hirulog-1 1 mg/kg/h, HLP 1.6 mg/kg/h [HLP(1.6)], 5 minutes after start of infusion
[13] = rats, 6 months after HLP 1.6 mg/kg/h for 4 hours
[14] = rats, 6 months after HLP treatment

hirulog-like peptide (HLP), sequence (chain, as listed by the source): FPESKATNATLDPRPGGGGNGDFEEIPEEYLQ

With Thrombin the “increase of 3H-thymidine incorporation” value [1] was 43%.

In the case of hirudin, the “frequency of major bleeding” value [2] is given as 6%-7% and the “incidence of major bleeding complications at non-cranial sites” value [2] is given as 7%.

In the case of Heparin [reference compound], the “aPTT / coagulation activity during treatment versus control or basal levels” value ([3]; rat, in vivo, iv) is reported as “greatly increased”.

With `CC[C@H](C)[C@H](NC(=O)[C@H](CCC(=O)O)NC(=O)[C@H](CCC(=O)O)NC(=O)[C@H](Cc1ccccc1)NC(=O)[C@H](CC(=O)O)NC(=O)CNC(=O)[C@H](CC(N)=O)NC(=O)CNC(=O)CNC(=O)CNC(=O)CNC(=O)[C@@H]1CCCN1C(=O)[C@H](CCCNC(=N)N)NC(=O)[C@@H]1CCCN1C(=O)[C@H](N)Cc1ccccc1)C(=O)N1CCC[C@H]1C(=O)N[C@@H](CCC(=O)O)C(=O)N[C@@H](CCC(=O)O)C(=O)N[C@@H](Cc1ccc(O)cc1)C(=O)N[C@@H](CC(C)C)C(=O)O` [Hirulog-1, reference compound] the “tail bleeding time during treatment versus control or basal levels” value ([4]; rats) was “significantly prolonged; also recorded: significantly elongated”, the “Bleeding time” value [4, 11] was 21.88 ± 1.55 min and the “aPTT raised over basal levels” value ([3]; 1 minute after injection of 1 mg/kg, uninjured and balloon injured rats) was 3- to 4 fold. The “aPTT (second)” value [3, 12] was 52.38 ± 2.84**+ second, the “prolongation of aPTT during infusion” value ([3]; heparin 50 U/kg/h, hirulog-1 1 mg/kg/h, 5 minutes after start of infusion) was 2- to 3 fold and the “aPTT / coagulation activity during treatment versus control or basal levels” value ([3]; rats, i.v. infusion) was “significantly elongated”. For the same molecule, the “time after treatment beyond which aPTT was normalized” value ([3]; single injection of 1 mg/kg) was over 30 min and the “aPTT versus basal levels” value ([3]; within 15 minutes after single injection of 1 mg/kg) was “higher than corresponding basal levels”.

In the case of `CC[C@H](C)[C@H](NC(=O)[C@H](CCC(=O)O)NC(=O)[C@H](CCC(=O)O)NC(=O)[C@H](Cc1ccccc1)NC(=O)[C@H](CC(=O)O)NC(=O)CNC(=O)[C@H](CC(N)=O)NC(=O)CNC(=O)CNC(=O)CNC(=O)CNC(=O)[C@@H]1CCCN1C(=O)[C@H](CCCNC(=N)N)NC(=O)[C@@H]1CCCN1C(=O)[C@H](CC(=O)O)NC(=O)[C@H](CC(C)C)NC(=O)[C@@H](NC(=O)[C@H](C)NC(=O)[C@H](CC(N)=O)NC(=O)[C@@H](NC(=O)[C@H](C)NC(=O)[C@H](CCCCN)NC(=O)[C@H](CO)NC(=O)[C@H](CCC(=O)O)NC(=O)[C@@H]1CCCN1C(=O)[C@@H](N)Cc1ccccc1)[C@@H](C)O)[C@@H](C)O)C(=O)N1CCC[C@H]1C(=O)N[C@@H](CCC(=O)O)C(=O)N[C@@H](CCC(=O)O)C(=O)N[C@@H](Cc1ccc(O)cc1)C(=O)N[C@@H](CC(C)C)C(=O)N[C@@H](CCC(N)=O)C(=O)O` [HLP], the “antigenicity / induction of detectable antibodies in rabbits” value [5] is reported as “weak antigen”, the “aPTT in rabbits versus saline controls” value [6] is reported as “did not significantly change; also recorded: not significantly prolonged” and the “toxic effect in rats” value ([7]; previous experiments) is reported as “does not cause evident toxic effect”. For the same molecule, the “alanine transaminase versus control group” value [7, 13] was “No significant difference”, the “blood urea nitrogen versus control group” value [7, 13] was “No significant difference” and the “liver and kidney functions” value [7, 14] was “No significant change”. For the same molecule, the “haemorrhage / death from haemorrhage during infusion” value ([7]; rats, heparin 50 U/kg/hours, HLP 1.6-3.2 mg/kg/hours) was “did not cause haemorrhage”, the “tail bleeding time 6 months after treatment versus controls” value [4, 14] was “No significant change; also recorded: No significant difference” and the “tail bleeding time during treatment versus control or basal levels” value ([4]; rats) was “did not cause haemorrhage, the elongation of aPTT or bleeding time; also recorded: not significantly different from vehicle controls; also recorded: did not prolong aPTT or bleeding time”. For the same molecule, the “Bleeding time (min)” value ([4]; tail, HLP 3.2 mg/kg/h [HLP(3.2)], 10 minutes after initiation of infusion, mean±SD, n=4) was 16.50 ± 1.58+x min, the “Bleeding time (min)” value [4, 11] was 16.37 ± 1.55+x min and the “aPTT (second)” value ([3]; HLP 3.2 mg/kg/h [HLP(3.2)], 5 minutes after start of infusion) was 19.80 ± 1.65++xx second. The “aPTT (second)” value [3, 12] was 20.80 ± 3.24++xx second, the “aPTT / coagulation activity during treatment versus control or basal levels” value ([3]; rats, i.v. infusion) was “close to that infused with saline; also recorded: did not cause haemorrhage, the elongation of aPTT; also recorded: not significantly different from vehicle controls; also recorded: did not significantly differ; also recorded: did not prolong aPTT or bleeding time; also recorded: did not significantly alter coagulation activity” and the “Ki on the enzymatic activity of thrombin, compared with hirulog-1” value [8] was “two orders of magnitude greater; also recorded: two orders of magnitude higher”. For the same molecule, the “HLP treated rabbits that suffered from bleeding complications” value [9] was “None”.

With α-thrombin the “thrombin-induced 3H-thymidine incorporation in baboon aortic SMC” value [10] was “Treatment with 20 µM HLP significantly reduced thrombin-induced increase in 3H-thymidine incorporation in SMC (p<0.05) compared to cells treated with thrombin only”.
